Where two headings read alike, the source gives them in different places.
Legend:
Actinomadura hydroxylase [1] = test: Effect of various factors on conversion of compactin to pravastatin in cell free extracts of Actinomadura; assay type: biochemical, Actinomadura ATCC 55678; conditions: for CP: compactin remaining
Actinomadura hydroxylase [2] = test: Conversion of compactin to pravastatin by cell free extracts of Actinomadura: NADH versus NADPH as H+ donor; assay type: biochemical, Actinomadura ATCC 55678; conditions: for PV: 160 μl cell free extract, 0.26 mM H+ donor, 0.23 mM compactin, 30° C.
Experimental: The HPLC conditions used were a 3 μm Lichrospher 100 RP-18 column (obtained from EM Separations Technology, Gibbstown, N.J.); Mobile Phase A: 2.5 g NaH2PO4 in 800 ml Milli-Q water, add 200 ml acetonitrile and 110 ml methanol, adjust pH to 2.5 with 85% H3PO4; Mobile Phase B: mixture of 200 ml water, 800 ml acetonitrile, 110 ml methanol and 1 ml 85% H3PO4; a 10 μl injection volume; a 1 ml/min. flow rate; and detection at UV 237 nm. The gradient table was: A cell free extract of Actinomadura was obtained by growing a 150 ml culture of Actinomadura ATCC 55678 for 2 days in YM medium as described in Example 1. The cells were harvested by centrifugation at 15,000 rpm for 30 min. […] Cells were harvested by centrifugation, washed twice with cold water and once with buffer A ([…] Tris-HCl buffer, pH 7.4, supplemented with 20% glycerol and 2 mM DTT). The cells were resuspended in 5 ml buffer A and stored at −80° C. The cell suspension was later thawed and disrupted in a French Press. The homogenate was centrifugated at 30,000 rpm for 60 min. The supernatant was stored at −80° C. as cell free extract. […] A control of buffer A without cell free extract was included. The amount of pravastatin was measured by HPLC as described in Example 1.

blood cholesterol level = test: Treating high blood cholesterol levels; assay type: in vivo; conditions: human patient; 20 mg orally, pill, twice a day, 3 months
Experimental: This example illustrates a method for lowering the cholesterol level in a human with pravastatin derived from an Actinomadura hydroxylase that converts compactin to pravastatin. The patient is given 20 mg of this pravastatin orally, in the form of a pill, twice a day. Administration is carried out for a period of 3 months.

[3] = target: T1, 3-hydroxy-3-methylglutaryl (HMG)-CoA reductase (Homo sapiens, UniProt P04035); conditions: have been reported; cited from earlier work
T1 sequence (P04035 1-888): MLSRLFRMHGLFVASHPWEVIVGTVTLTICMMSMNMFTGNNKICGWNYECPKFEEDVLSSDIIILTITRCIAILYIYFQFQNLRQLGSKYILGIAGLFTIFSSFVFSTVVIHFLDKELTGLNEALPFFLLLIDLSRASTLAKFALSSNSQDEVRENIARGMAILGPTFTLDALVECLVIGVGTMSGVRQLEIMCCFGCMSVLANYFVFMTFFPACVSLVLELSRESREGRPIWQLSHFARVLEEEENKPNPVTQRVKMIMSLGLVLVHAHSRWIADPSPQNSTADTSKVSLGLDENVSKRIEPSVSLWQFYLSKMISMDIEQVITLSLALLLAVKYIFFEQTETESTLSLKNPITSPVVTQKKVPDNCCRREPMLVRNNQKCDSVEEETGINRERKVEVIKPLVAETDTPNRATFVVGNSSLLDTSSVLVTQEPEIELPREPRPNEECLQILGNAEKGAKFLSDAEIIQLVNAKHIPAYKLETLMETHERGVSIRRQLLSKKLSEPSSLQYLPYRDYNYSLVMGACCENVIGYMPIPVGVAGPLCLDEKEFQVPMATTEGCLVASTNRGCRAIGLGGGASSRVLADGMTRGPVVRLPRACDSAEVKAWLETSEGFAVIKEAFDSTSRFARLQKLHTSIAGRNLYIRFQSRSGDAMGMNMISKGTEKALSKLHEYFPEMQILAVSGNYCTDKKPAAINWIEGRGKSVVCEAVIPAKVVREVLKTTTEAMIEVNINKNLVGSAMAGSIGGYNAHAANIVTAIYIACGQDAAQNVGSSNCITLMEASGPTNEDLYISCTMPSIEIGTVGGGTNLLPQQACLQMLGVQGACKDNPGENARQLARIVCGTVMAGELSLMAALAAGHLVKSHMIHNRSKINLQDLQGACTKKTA

fungi = conditions: Serizawa et al., J. Antibiotics 36:887-891 (1983); cited from earlier work
strain 2966 = test: Antibiotic sensitivity of strain 2966 (taxonomic description); assay type: cell-based, Actinomadura
Text: Description of strain 2966: Cell wall analysis: Whole cell hydrolysates contain meso-diaminopimelic acid (DAP) and madurose. Morphology: Strain 2966 produces an extensively branched, non-fragmenting and dense substrate mycelium. The aerial mycelium is very well developed on yeast malt extract agar, oatmeal agar, N-Z Amine with soluble starch and glucose agar and absent on ISP-4, ISP-5 and ISP-7 media. Spore chains noticeably exceed the diameter of the hyphae which is characteristic for Actinomadura strains and distinguish them from Streptomyces. The presence of meso-DAP is another distinguishing feature. Spores of strain 2966 have a round shape unlike glycomyces species. No special morphological structures were observed either on the substrate mycelium or aerial mycelium. The color of the aerial mycelium is white and yellow-brown for substrate mycelium. No soluble or melanin pigments are formed. Mycelium is not sensitive to pH changes. Carbon source utilization is very poor for glucose, arabinose, D-fructose, D-mannitol, raffinose, rhamnose, sucrose, xylose, galactose and there is only a trace of growth with i-inositol, salicin or on control agar. […] Of the meso-DAP-containing actinomycetes, only Actinomadura species have non-fragmenting mycelium and display the same type of aerial mycelium formation and sporulation as strain 2966.

[4] = Actinomadura cell free extracts, alone or in combination
[5] = Table 10, CFE Uninduced, combination MgCl2 2.4 mM, ATP 1.9 mM, ascb 12 mM, ATP alone 3.8 mM, ascb alone 23 mM
[6] = Table 9, 60 min, 0.72 mM NADPH, 0.2 mM compactin, 2.4 mM MgCl2, 0.09 mM FeSO4, 0.1 mM FeCl3, 1.9 mM ATP and 12 mM ascorbic acid
[7] = Table 9, 60 min, 0.72 mM NADPH, 0.2 mM compactin, same factor concentrations

## Nc1ncnc2c1ncn2[C@@H]1O[C@H](COP(=O)(O)OP(=O)(O)OP(=O)(O)O)[C@@H](O)[C@H]1O [ATP]
Actinomadura hydroxylase [1]; [4]
  stimulation of the enzymatic activity of the agent (conversion of compactin to pravastatin): stimulate conversion of compactin to pravastatin
Actinomadura hydroxylase [1]; [5]
  PV (μg/min/g): 17 µg/min/g
  PV (μg/ml): 7.5 µg/mL

## [Cl-].[Cl-].[Co+2] [CoCl2]
Actinomadura hydroxylase [1]
  stimulation of the enzymatic activity of the agent (conversion of compactin to pravastatin): do not stimulate enzymatic activity

## O=S(=O)([O-])[O-].[Cu+2] [CuSo4]
Actinomadura hydroxylase [1]; [4]
  stimulation of the enzymatic activity of the agent (conversion of compactin to pravastatin): do not stimulate enzymatic activity

## Cc1cc2nc3c(=O)[nH]c(=O)nc-3n(C[C@H](O)[C@H](O)[C@H](O)COP(=O)(O)OP(=O)(O)OC[C@H]3O[C@@H](n4cnc5c(N)ncnc54)[C@H](O)[C@@H]3O)c2cc1C [FAD]
Actinomadura hydroxylase [1]
  stimulation of the enzymatic activity of the agent (conversion of compactin to pravastatin): do not stimulate enzymatic activity

## Cc1cc2nc3c(=O)[nH]c(=O)nc-3n(C[C@H](O)[C@H](O)[C@H](O)COP(=O)(O)O)c2cc1C [FMN]
Actinomadura hydroxylase [1]
  stimulation of the enzymatic activity of the agent (conversion of compactin to pravastatin): do not stimulate enzymatic activity

## [Cl][Fe]([Cl])[Cl] [FeCl3]
Actinomadura hydroxylase [1]; [6]
  PV (μg/ml): 3.3 µg/mL
Actinomadura hydroxylase [1]; [7]
  PV (μg/min/g): 6.6 µg/min/g
  CP: 57.9 µg/mL

## O=S(=O)([O-])[O-].[Fe+2] [FeSO4]
Actinomadura hydroxylase [1]; [6]
  PV (μg/ml): 2.3 µg/mL
Actinomadura hydroxylase [1]; [7]
  PV (μg/min/g): 6.4 µg/min/g
  CP: 64.3 µg/mL

## [Cl-].[Cl-].[Mg+2] [MgCl2]
Actinomadura hydroxylase [1]; [4]
  stimulation of the enzymatic activity of the agent (conversion of compactin to pravastatin): stimulate conversion of compactin to pravastatin
Actinomadura hydroxylase [1]; [6]
  PV (μg/ml): 4.4 µg/mL
Actinomadura hydroxylase [1]; [7]
  PV (μg/min/g): 8.7 µg/min/g
  CP: 60.2 µg/mL

## NC(=O)C1=CN([C@@H]2O[C@H](COP(=O)(O)OP(=O)(O)OC[C@H]3O[C@@H](n4cnc5c(N)ncnc54)[C@H](O)[C@@H]3O)[C@@H](O)[C@H]2O)C=CC1 [NADH]
Actinomadura hydroxylase [2]; 5 hours
  PV: 2.8 µg/mL
Actinomadura hydroxylase [2]; 21 hours
  PV: 2.8 µg/mL

## NC(=O)C1=CN([C@@H]2O[C@H](COP(=O)(O)OP(=O)(O)OC[C@H]3O[C@@H](n4cnc5c(N)ncnc54)[C@H](OP(=O)(O)O)[C@@H]3O)[C@@H](O)[C@H]2O)C=CC1 [NADPH]
Actinomadura hydroxylase [2]; 6 hours
  PV: 12.8 µg/mL
Actinomadura hydroxylase [2]; 21 hours
  PV: 11.9 µg/mL
Actinomadura hydroxylase [2]; cell free extracts
  enzymatic conversion of compactin to pravastatin, comparison of H+ donors: better with NADPH as a H^+ donor than with NADH

## [Cl][Ni][Cl] [NiCl2]
Actinomadura hydroxylase [1]; [4]
  stimulation of the enzymatic activity of the agent (conversion of compactin to pravastatin): do not stimulate enzymatic activity

## O=C1O[C@H]([C@@H](O)CO)C(O)=C1O [ascb, ascorbic acid]
Actinomadura hydroxylase [1]; [4]
  stimulation of the enzymatic activity of the agent (conversion of compactin to pravastatin): stimulate conversion of compactin to pravastatin
Actinomadura hydroxylase [1]; [5]
  PV (μg/min/g): 18 µg/min/g
  PV (μg/ml): 8.3 µg/mL

## CC[C@H](C)C(=O)O[C@H]1C[C@H](O)C=C2C=C[C@H](C)[C@H](CC[C@@H](O)C[C@@H](O)CC(=O)O)[C@H]21 [pravastatin]
Blood cholesterol level
  blood cholesterol level: reduction of the patient's blood cholesterol level
[3]
  inhibition of HMG-CoA reductase: competitive inhibitors

## O=C(O)CCC(=O)C(=O)O [∝-ketoglutarate]
Actinomadura hydroxylase [1]; [4]
  stimulation of the enzymatic activity of the agent (conversion of compactin to pravastatin): do not stimulate enzymatic activity

## compactin
fungi
  activity against fungi: anti-fungal activity

## neomycin
Strain 2966
  sensitivity of strain 2966 to antibiotic: inhibited

## penicillin
Strain 2966
  sensitivity of strain 2966 to antibiotic: resistance
